{"source": "patent US7897340B2", "about": "“Use of tumor susceptibilty gene 101 (TSG 101) as a prognostic and diagnostic marker” (The Board of Regents of the University of Texas System, priority 2006, dated 2011)", "format_in_all_cases": "cell-based, human", "key": {"SKOV-3 cells [1]": {"tested_on": "SKOV-3 cells", "test": "Cell viability MTT assay", "conditions": "SKOV-3, days 3 to 7 post transfection, vs scrambled control siRNA", "excerpt": "(§1) A siRNA duplex specific for TSG101 (targeting TSG101 coding sequence 413-433) and a scrambled random control siRNA with matching GC content were obtained from Dharmacon. This specific TSG101 siRNA duplex (sense: CCUCCAGUCUUCUCUCGUCdTdT (SEQ ID NO: 7) and antisense: dTd[…] (SEQ ID NO: 8) have been successfully applied to suppress the expression of endogenous TSG101 in several high quality studies (Amit et al., 2004; Garrus et al., 2001; Hewitt et al., 2002; Ismaili et al., 2005). Transfection of the siRNAs was according to the manufacturer's instructions using Lipofectamine 2000 (Invitrogen).\nSKOV-3 cells were trypsinized 48 hrs post-transfection with siRNAs and plated at 2×10^3 cells/well in 96 well plates, with 5 wells for each treatment. On subsequent days (days 3 to 7), media was removed and 100 μl/well fresh media was added along with 10 μl of 3-(4,5-dimethylthiazol-2-yl)-2,5-diphenyl tetrazolium bromide (MTT) to a final concentration of 500 μg/ml. Cells were incubated for 3 hrs at 37° C., and then lysed by adding 200 μl/well DMSO and incubating at 37° C. for 1 hr. Cell viability was measured by reduction of MTT, which registered absorbance at 595 nm on a Molecular Devices microplate reader."}, "CITED2": {"tested_on": "CITED2", "test": "CITED2 protein by immunoblotting in SKOV-3 cells", "conditions": "SKOV-3, immunoblotting", "excerpt": "Antigen-antibody complexes were detected by enhanced chemiluminescence (Pierce).\nas §1"}, "[2]": {"tested_on": "HIF-1α transcriptional activity", "test": "HIF-1α GFP reporter assay (HRE-GFP) in SKOV-3 cells", "experimental": "Cells were plated at 1×10^5 in 3.5 cm wells and grown overnight at 37° C. The following day cells were transfected with 375 ng/well of either TSG101 or control siRNA duplex using Lipofectamine 2000. Cells were then passaged at 48 hrs post-transfection and used for subsequent experiments. The HIF-1α response element (HRE)-GFP reporter (a generous gift from Mark Dewhirst) was transfected into cells 48 hrs after transfection with siRNA reagents, and subsequently plated onto microscope cover slips. On the fifth day following siRNA transfection, cells on cover slips were rinsed in PBS and fixed in 2% paraformaldehyde for 15 min. Nuclear staining was carried out with DAPI (5 ng/ml) for 5 min, after which slides were mounted and observed using a fluorescence microscope (Olympus BX51) equipped with a Hamamatsu digital camera (C4742-95).\nTo test the functional consequence of TSG101 knock-down mediated down-regulation of CITED2/HIF-1 ? HIF-1 ? transcriptional activity was examined using a HIF-1-inducible fluorescent reporter. This construct was created by splicing five copies of the hypoxia regulatory element (HRE) upstream of enhanced green fluorescent protein (GFP), which provided a convenient method for monitoring HIF-1 activity levels by following GFP expression using fluorescence microscopy (Moeller et al., 2004)."}, "SKOV-3 cells [3]": {"tested_on": "SKOV-3 cells", "test": "Cell growth by counting", "experimental": "FIGS. 11A-F show association of suppression of TSG101 expression with cell cycle arrest and growth inhibition. In FIG. 11A, SKOV-3 cells were transfected with TSG101 and control siRNAs and RNA and protein were isolated 48 hours post transfection. Levels of mRNA were determined by semiquantitative RT-PCR and protein levels were determined by immunoblotting, respectively. Similar results were obtained from more than 4 independent experiments. In FIG. 11B, TSG101 or control siRNA transfected cells were plated at 2.5×10^4 cells/well in 6 well plates and cell growth was determined by counting over successive days. Each data point represents the average of 3 wells. Control and TSG101 knockdown SKOV-3 cells were stained with propidium iodide and analyzed by FACS on day 4 (FIG. 11C) or day 6 (FIG. 11D) following transfection. Sub G1 cells are calculated as a supplemental population. In FIG. 11E, SKOV-3 cell lysates were obtained 6 days following transfection with control or TSG101 siRNA. Caspase activity was determined using the fluorogenic substrate DEVD-AFC. In FIG. 11F, control and TSG101 knockdown SKOV-3 cells on day 5 following siRNA transfection were stained using Hoechst 22658 and Nuclear condensation was observed on a fluorescent microscope. Cells with condensed/fragmented DNA were quantified from at least 8 images, and represented as a percentage of the total number of cells. […]"}, "SKOV-3 cells [4]": {"tested_on": "SKOV-3 cells", "test": "Flow cytometry cell cycle analysis (propidium iodide)", "experimental": "SKOV-3 cells transfected with either TSG101 or control siRNA were grown and harvested 4 and 6 days after transfection. 1×10^6 cells were trypsinized from 10 cm plates and transferred to FACS tubes, washed twice with PBS, and then fixed with 70% ethanol for 2 h on ice. Ethanol was removed by centrifugation and cells were rehydrated in PBS at room temperature for 5 min. Cells were centrifuged to remove PBS and stained with 1 ml of propidium iodide staining solution (0.1% Triton X-100, 0.2 mg/ml RNAase A, 0.05 mg/ml propidium iodide, prepared fresh) for 1 h at room temperature. Cellular DNA content was then determined on a Becton-Dickinson FACS-Scan apparatus."}, "SKOV-3 cells [5]": {"tested_on": "SKOV-3 cells", "test": "Nuclear DNA condensation staining (Hoechst)", "conditions": "SKOV-3, day 5 following siRNA transfection", "experimental": "2-3×10^5 SKOV-3 cells were plated in 3 cm tissue culture plates containing polylysine coated coverslips, and transfected with either control or TSG101 siRNA. Cells on coverslips were stained 5 days post-transfection with Hoechst 22658 for 30 min, rinsed with PBS, and sealed onto glass slides. Nuclear DNA condensation was examined using a fluorescence microscope (Olympus BX51) equipped with a Hamamatsu digital camera (C4742-95)."}}, "data": [{"substance": "TSG101 siRNA: siRNA duplex from Dharmacon targeting TSG101 coding sequence 413-433, SEQ ID NO: 7 and 8 (chain 1 CCUCCAGUCUUCUCUCGUCTT; chain 2 TTGGAGGUCAGAAGAGAGCAG; chemistry not fully specified; one strand is listed 3' to 5')", "values": [{"measurement": "cell viability (MTT)", "setting": "SKOV-3 cells [1]", "result": "decrease dramatically in number beginning 5 days post transfection"}, {"measurement": "cellular levels of CITED2 protein", "setting": "CITED2", "result": "significantly reduced"}, {"measurement": "fluorescent signal from GFP expression (HRE-GFP)", "setting": "[2]; SKOV-3, fluorescence microscopy, 4 days post-transfection as printed", "result": "significantly decreased"}, {"measurement": "GFP protein expression (HRE-GFP)", "setting": "[2]; SKOV-3, immunoblotting", "result": "significantly decreased expression of GFP"}, {"measurement": "cell number (cell growth)", "setting": "SKOV-3 cells [3]; SKOV-3, counting over successive days, vs scrambled control siRNA", "result": "decrease dramatically in number beginning 5 days post transfection"}, {"measurement": "rate of cell growth, initial observations", "setting": "SKOV-3 cells [3]; SKOV-3, up to 72 h posttransfection", "result": "no significant cellular effects on cell growth"}, {"measurement": "cellular DNA content vs control siRNA", "setting": "SKOV-3 cells [4]; SKOV-3, day 4", "result": "very similar"}, {"measurement": "sub-G1 apoptotic cell debris", "setting": "SKOV-3 cells [4]; SKOV-3, day 4", "result": "not seen"}, {"measurement": "G1/G0 phase cells", "setting": "SKOV-3 cells [4]; SKOV-3, day 6", "result": "decrease"}, {"measurement": "number of cells in G2/M phase", "setting": "SKOV-3 cells [4]; SKOV-3, day 6", "result": "significant increase"}, {"measurement": "sub-G1 apoptotic cell debris", "setting": "SKOV-3 cells [4]; SKOV-3, day 6", "result": "significant population"}, {"measurement": "nuclear DNA condensation/fragmentation", "setting": "SKOV-3 cells [5]", "result": "apparent increases"}]}]}
